Laboratory results taken from patent US6096512A, “Cloned DNA encoding a UDP-GalNAc: Polypeptide, N-acetylgalactosaminyltransferase” (Pharmacia & Upjohn Company, priority 1997, dated 2000).
Where “and” joins values, the source holds several entries; their conditions need not be identical. Identical values can stand only once. Residues, ends and D or L forms follow the SMILES beside them.

Assays:
[1] = biological target: T1, bovine colostrum GalNAc-transferase (Bos taurus, UniProt Q07537); assay: Transfer of N-acetylgalactosamine to protein acceptors by bovine colostrum GalNAc-transferase; format: biochemical; settings: for acceptor activity in words: native or reduced and carboxymethylated
T1 sequence (Q07537 41-559): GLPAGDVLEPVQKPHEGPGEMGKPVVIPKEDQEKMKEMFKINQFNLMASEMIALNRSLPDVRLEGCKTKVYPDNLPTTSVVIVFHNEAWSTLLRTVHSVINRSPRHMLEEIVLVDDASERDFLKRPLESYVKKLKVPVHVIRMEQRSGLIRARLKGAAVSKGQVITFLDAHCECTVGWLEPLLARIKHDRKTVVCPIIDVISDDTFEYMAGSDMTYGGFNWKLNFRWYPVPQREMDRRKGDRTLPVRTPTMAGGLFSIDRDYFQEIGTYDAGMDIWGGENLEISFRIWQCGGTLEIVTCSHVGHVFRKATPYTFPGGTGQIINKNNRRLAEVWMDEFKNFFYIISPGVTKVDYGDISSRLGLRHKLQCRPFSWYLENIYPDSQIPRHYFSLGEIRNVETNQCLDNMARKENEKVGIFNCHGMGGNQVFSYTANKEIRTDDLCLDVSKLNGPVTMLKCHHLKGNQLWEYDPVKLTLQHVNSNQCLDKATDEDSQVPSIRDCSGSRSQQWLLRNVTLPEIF
Experimental: (§1) The standard assay for UDP-GalNAc:polypeptide, N-acetylgalactosaminyltransferase activity during purification contained the following components in a final volume of 80 μl: 50 mM Imidazole pH 7.2, 10 mM MnCl2, 0.5% Triton X-100, 15 μM UDP-GalNAc, UDP[1-^3 H-] GalNAc (27,000 cpm/assay), 0.15 mg/ml apomucin and varying amounts of enzyme (see individual experiments). The reaction mixture is incubated at 37° C. for 5-10 minutes (see individual experiments) and the reaction product is TCA precipitated and radioactivity measured as described. Assays for activity in lysates from Spodoptera frugiperda cell line 9 (hereinafter referred to as Sf9 cells) are carried out as described by Thomsen et al., (1990).
The above conclusions and the predictions of the specificity algorithm are validated experimentally by studying the ability of bovine colostrum GalNAc-transferase to transfer N-acetylgalactosamine to a variety of acceptors, both native proteins and synthetic acceptor peptides. The transfer of N-acetylgalactosamine to protein acceptors is assayed as described by Elhammer and Kornfeld, 1986, with minor modifications. The concentration of UDP-GalNAc is saturating in all assays; a Km of 8 μM is reported for bovine colostrum GalNAc-transferase (Elhammer and Kornfeld, 1986).
The transfer of N-acetylgalactosamine to protein acceptors was assayed
under standard conditions (see Material and Methods). The acceptor
concentration was 65 μM, the enzyme concentration approximately
65 mU/ml and assay time was 60 minutes. The transfer to both native and
reduced-carboxymethylated acceptors was assayed.

[2] = biological target: T1, bovine colostrum GalNAc-transferase; assay: Determination of kinetic parameters for acceptor peptides; format: biochemical
From the text: (§2) The t-Boc-amino acids and the PAM resin solid supports are supplied by ABI. The completed peptides are removed from the supporting resin, concurrently with the side chain-protecting groups, by a standard HF cleavage procedure using anisole as a cation scavenger (10% v/v). The crude peptides are purified by preparative reverse phase chromatography on a C18 Vydac column (2.5×30 cm) using a water/acetonitrile gradient, each phase containing 0.1% TFA.
The transfer of N-acetylgalactosamine to peptide acceptors is assayed by two different assays. […] For the determination of kinetic parameters the reaction mixture contains 50 mM Imidazole, pH 7.2, 10 mM MnCl2, 0.5% Triton X-100, 150 μM UDP-GalNAc, approximately 120,000 cpm of UDP-[1-^3 H]-GalNAc, varying concentrations of acceptor (see individual experiments) and approximately 5 mU of enzyme in a final volume of 40 μl; standard incubation time is 20 minutes. The reaction is terminated by placing the samples in a boiling water bath for 1.5 minutes. The reaction product (glycosylated peptide) is separated from unreacted UDP-GalNAc by chromatography on Dowex-2 columns (0.5 ml bed volume) equilibrated in water; the run-through fraction (2.5 ml) containing the glycosylated peptide is collected, supplemented with scintillation fluid and counted for radioactivity. […]

[3] = biological target: T1, bovine colostrum GalNAc-transferase; assay: Comparison of different synthetic peptides as acceptors (Biogel P-2 separation); format: biochemical
From the text: as §2
The transfer of N-acetylgalactosamine to peptide acceptors is assayed by two different assays. […] For the determination of kinetic parameters the reaction mixture contains 50 mM Imidazole, pH 7.2, 10 mM MnCl2, 0.5% Triton X-100, 150 μM UDP-GalNAc, approximately 120,000 cpm of UDP-[1-^3 H]-GalNAc, varying concentrations of acceptor (see individual experiments) and approximately 5 mU of enzyme in a final volume of 40 μl; standard incubation time is 20 minutes. The reaction is terminated by placing the samples in a boiling water bath for 1.5 minutes. The reaction product (glycosylated peptide) is separated from unreacted UDP-GalNAc by chromatography on Dowex-2 columns (0.5 ml bed volume) equilibrated in water; the run-through fraction (2.5 ml) containing the glycosylated peptide is collected, supplemented with scintillation fluid and counted for radioactivity. For the determination of the low levels of transfer to serine, the assay conditions are as follows: 50 mM Imidazole, pH 7.2, 10 mM MnCl2, 0.5% Triton X-100, 150 μM UDP-GalNAc, approximately 260,000 cpm UDP-[^3 H]-GalNAc and 3.2 mM acceptor peptide (the concentration of RSPPP is 3.7 mM). […] Following incubation, the enzyme is inactivated by placing the samples on a boiling water bath for 1.5 minutes. The samples are then allowed to cool and the reaction products are separated from unreacted UDP-GalNAc and free GalNAc by chromatography on a Biogel P-2 column (1×50 cm) equilibrated in 7% isopropanol; thirty 1.3 ml fractions are collected.
Assays were done as described in Materials and Methods. The products
were separated by Biogel P-2 chromatography. Assay times were 20 […]

[4] = system: GalNAcTs (cloned soluble GalNAc-transferase); assay: Transfer of N-acetylgalactosamine to synthetic acceptor peptides by soluble GalNAc-transferase, kinetic parameters; settings: read-out: Km for UDP-GalNAc
[5] = system: GalNAc-transferase activity in Sf9 cells; assay: Expression of baculovirus isolates of the GalNAc-transferase in Sf9 cells, GalNAcT activity; format: cell-based, Spodoptera frugiperda
Experimental: as §1
The putative GalNAcT coding region, pCR1000-91B, is digested with SstII and HindIII (both enzymes cut only in pCR1000 sequences that flank the insert; FIG. 2C) and these sites are blunted using T4 DNA polymerase so that it can be cloned into a baculovirus expression vector. BamHI linkers are then ligated onto the blunted ends and the resulting sample is ligated into the BamHI site of the baculovirus expression vector pAC373 (Summers and Smith, 1986). The resulting isolates are screened for proper orientation of the GalNAcT open reading frame with respect to the baculovirus polyhedron promoter, to yield pAC373-GalNAcT. […]

Compound: Bovine cytochrome C: contains one Ser and eight Thr residues but no predicted potential sites [reference compound]
- Product formed, native acceptor ([1]; acceptor 65 μM, enzyme approximately 65 mU/ml, 60 minutes, native): < 0.1 nmol/min/mg
- Product formed, reduced and carboxymethylated acceptor ([1]; acceptor 65 μM, enzyme approximately 65 mU/ml, 60 minutes, myelin basic protein was not reduced and carboxymethylated): < 0.1 nmol/min/mg
- acceptor activity in words ([1]; listed as bovine cytochrome C): is not an acceptor for the enzyme
- acceptor activity in words ([1]; listed as cytochrome C): completely inactive as an acceptor

Compound: C[C@@H](O)[C@H](NC(=O)[C@@H](N)CCCNC(=N)N)C(=O)N1CCC[C@H]1C(=O)N1CCC[C@H]1C(=O)N1CCC[C@H]1C(=O)O [RTPPP, Arg-Thr-Pro-Pro-Pro] (H-RTPPP-OH)
- Km ([2]; 20 minutes, mean, S.E. (n = 3)): 3300 ± 600 µM
- Vmax /Km ([2]; from Km and Vmax): 183 M⁻¹ s⁻¹

Compound: N=C(N)NCCC[C@H](N)C(=O)N[C@@H](CO)C(=O)N1CCC[C@H]1C(=O)N1CCC[C@H]1C(=O)N1CCC[C@H]1C(=O)O [RSPPP, Arg-Ser-Pro-Pro-Pro] (H-RSPPP-OH)
- slower glycosylation than PPAdSSdSAPG ([3]; RSPPP vs PPAdSSdSAPG): three times slower than PPAdSSdSAPG
- Relative rate ([3]; […]): 1/751
- Product formed ([3]; assay time 8 hours, 3.2 mM acceptor (RSPPP 3.7 mM)): 0.67 nmol/min/mg

Compound: CC(=O)N[C@H]1[C@@H](OP(=O)(O)OP(=O)(O)OC[C@H]2O[C@@H](n3ccc(=O)[nH]c3=O)[C@H](O)[C@@H]2O)O[C@H](CO)[C@H](O)[C@@H]1O [UDP-GalNAc, UDP-N-acetylgalactosamine]
- Km [4]: ~1.7 µM and 1.7 µM

Compound: CMW Pol-1: baculovirus containing an unrelated gene, human cytomegalovirus DNA polymerase gene [reference compound]
- Specific activity ([5]; Sf9 cell lysates, 48 hours post infection): 0.13 Units/mg protein
- Relative rate ([5]; relative to uninfected cells): 0.8
